Test results from patent US20230174660A1, “USE OF A MULTIMERIC ANTI-DR5 BINDING MOLECULE IN COMBINATION WITH A CANCER THERAPY FOR TREATING CANCER” (IGM Biosciences, Inc., priority 2020, published 2023).

Columns and labels:
EBC-1 = assay: Cell Titer Glo viability, Mab A + SMAC mimetics (Example 13); format: cell-based; conditions: SMAC mimetic in combination with Mab A
Experimental: (§1) Synergy was determined as described in earlier examples. The average Bliss synergy scores for combinations of Mab A and SMAC mimetic on the various tumor cell lines are shown in Table 15.

HCT 116 = assay: as above; format: cell-based; conditions: SMAC mimetic in combination with Mab A
Experimental: as §1

HT 1080 = assay: as above; format: cell-based; conditions: SMAC mimetic in combination with Mab A
Experimental: as §1

OVCAR-4 = assay: as above; format: cell-based; conditions: SMAC mimetic in combination with Mab A
Experimental: as §1

SK-MEL-5 = assay: as above; format: cell-based; conditions: SMAC mimetic in combination with Mab A
Experimental: as §1

SW1353 = assay: as above; format: cell-based; conditions: SMAC mimetic in combination with Mab A
Experimental: as §1

[1] = test system: DR5 agonist-resistant MDA-MB-231 cells; assay: Cell Titer Glo viability, Mab A + SMAC mimetic on DR5 agonist-resistant tumor cells (Example 8); format: cell-based
MDA-MB-231 tumor cells = assay: Cell Titer Glo viability, Mab A + SMAC mimetic (Example 7); conditions: MDA-MB-231 cells; 72 hours
NCIH460 = assay: Cell Titer Glo viability, Mab A + chemotherapeutic agent, Bliss synergy (Example 1); format: cell-based; conditions: combination with anti-DR5 IgM Mab A; NCIH460, Lung, Non-small cell; 72 hours
HCT15 = assay: as above; format: cell-based; conditions: combination with anti-DR5 IgM Mab A; HCT15, Colorectal adenocarcinoma; 72 hours
NCIN87 = assay: as above; format: cell-based; conditions: combination with anti-DR5 IgM Mab A; NCIN87, Gastric Adenocarcinoma, tubular; 72 hours
PANC1 = assay: as above; format: cell-based; conditions: combination with anti-DR5 IgM Mab A; PANC1, Pancreas Ductal Adenocarcinoma, exocrine; 72 hours
SNU5 = assay: as above; format: cell-based; conditions: combination with anti-DR5 IgM Mab A; SNU5, Gastric Adenocarcinoma; 72 hours
NCIH2228 = assay: as above; format: cell-based; conditions: combination with anti-DR5 IgM Mab A; NCIH2228, Lung, Non-small cell; 72 hours
HT1080 = assay: as above; format: cell-based; conditions: combination with anti-DR5 IgM Mab A; HT1080, Connective tissue Fibrosarcoma; 72 hours
NUGC4 = assay: as above; format: cell-based; conditions: combination with anti-DR5 IgM Mab A; NUGC4, Gastric Adenocarcinoma; 72 hours
BXPC3 = assay: as above; format: cell-based; conditions: combination with anti-DR5 IgM Mab A; BXPC3, Pancreas adenocarcinoma; 72 hours
HT55 = assay: as above; format: cell-based; conditions: combination with anti-DR5 IgM Mab A; HT55, Colorectal Carcinoma; 72 hours
ASPC1 = assay: as above; format: cell-based; conditions: combination with anti-DR5 IgM Mab A; ASPC1, Pancreas Ductal adenocarcinoma; 72 hours
LOUNH91 = assay: as above; format: cell-based; conditions: combination with anti-DR5 IgM Mab A; LOUNH91, Lung Squamous cell carcinoma; 72 hours
NCIH508 = assay: as above; format: cell-based; conditions: combination with anti-DR5 IgM Mab A; NCIH508, Colorectal Caecum Adenocarcinoma; 72 hours
Toledo = assay: Cell Titer Glo viability, Mab A + chemotherapeutic/targeted agent (Example 9); format: cell-based; conditions: combination with Mab A; Toledo (NHL); 72 hours
WSU-DLCL2 = assay: as above; format: cell-based; conditions: combination with Mab A; WSU-DLCL2 (NHL); 72 hours
Karpas-422 = assay: as above; format: cell-based; conditions: combination with Mab A; Karpas-422 (NHL); 72 hours
DOHH-2 = assay: as above; conditions: combination with Mab A; DOHH-2 (NHL); 72 hours
OCI-LY7 = assay: as above; conditions: combination with Mab A; OCI-LY7 (NHL); 72 hours
U-937 = assay: as above; conditions: 72 hours
UMUC3 = assay: Cell Titer Glo viability, Mab A + chemotherapeutic agent, Bliss synergy (Example 1); format: cell-based; conditions: combination with anti-DR5 IgM Mab A; UMUC3, Bladder Transitional Cell Carcinoma; 72 hours
[2] = test system: primary human hepatocytes; assay: as above; format: cell-based; conditions: combination with anti-DR5 IgM Mab A, Liver, 72 hours
Colo205 tumor cells = assay: Colo205 subcutaneous tumor model in NCr nude mice (Examples 2-5, 14); format: in vivo; conditions: study termination on day 100; paclitaxel 25 mg/kg i.v. 5 doses, alone or with Mab A 5 mg/kg i.v. 7 doses

CN[C@@H](C)C(=O)N[C@H]1CN(S(=O)(=O)c2cccc(S(=O)(=O)N3CC[C@H]4CC[C@@H](C(=O)NC(c5ccccc5)c5ccccc5)N4C(=O)[C@@H](NC(=O)[C@H](C)NC)C3)c2)CC[C@H]2CC[C@@H](C(=O)NC(c3ccccc3)c3ccccc3)N2C1=O [APG-1387]
Average Bliss score (EBC-1): 47 | Average Bliss score (HCT 116): 34 | Average Bliss score (HT 1080): 38 | Average Bliss score (OVCAR-4): 10 | Average Bliss score (SK-MEL-5): 7 | Average Bliss score (SW1353): −3

C[C@@H]1CN(CC(=O)N2CC(C)(C)c3nc(CO)c(Cc4ccc(F)cc4)cc32)[C@@H](CN2CCOC[C@H]2C)CN1 [ASTX660]
Average Bliss score (EBC-1): 17 | Average Bliss score (HCT 116): 29 | Average Bliss score (HT 1080): 20 | Average Bliss score (OVCAR-4): 9 | Average Bliss score (SK-MEL-5): 11 | Average Bliss score (SW1353): −2

CN[C@@H](C)C(=O)N[C@H]1CN(C(=O)CC(C)C)CC[C@H]2CC[C@@H](C(=O)NC(c3ccccc3)c3ccccc3)N2C1=O [Debio 1143]
Average Bliss score (EBC-1): 23 | Average Bliss score (HCT 116): 19 | Average Bliss score (HT 1080): 12 | Average Bliss score (OVCAR-4): 3 | Average Bliss score (SK-MEL-5): 4 | Average Bliss score (SW1353): −1

CN[C@@H](C)C(=O)N[C@H](C(=O)N1CCC[C@H]1C(=O)Nc1snnc1-c1ccccc1)C1CCCCC1 [GDC-0152, GDC-0152/RG-7419]
single agent cytotoxicity (cell viability curves) [1]: little to no cytotoxicity | single agent cytotoxicity (cell viability curves) (MDA-MB-231 tumor cells): little to no cytotoxicity

COc1cc([C@@H]2c3cc4c(cc3[C@@H](O[C@@H]3O[C@@H]5CO[C@@H](C)O[C@H]5[C@H](O)[C@H]3O)[C@H]3COC(=O)[C@H]23)OCO4)cc(OC)c1O [etoposide, Etoposide]
Average Bliss score (NCIH460): 3.6 | Average Bliss score (HCT15): 15 | Average Bliss score (NCIN87): 17 | Average Bliss score (PANC1): 10 | Average Bliss score (SNU5): 3.6 | Average Bliss score (NCIH2228): 14 | Average Bliss score (HT1080): 3.6 | Average Bliss score (NUGC4): −2.3 | Average Bliss score (BXPC3): 2.2 | Average Bliss score (HT55): 5.1 | Average Bliss score (ASPC1): 5.2 | Average Bliss score (LOUNH91): 16 | Average Bliss score (NCIH508): −0.99

CC[C@H](Nc1ncnc2nc[nH]c12)c1nc2cccc(F)c2c(=O)n1-c1ccccc1 [idelalisib, Idelalisib]
Average Bliss score (Toledo): −1.6 | Average Bliss score (WSU-DLCL2): −7.4 | Average Bliss score (Karpas-422): −3.2 | Average Bliss score (DOHH-2): −0.89 | Average Bliss score (OCI-LY7): −1.8 | Average Bliss score (U-937; combination with Mab A, U-937 (NHL)): 2.7

CC(=O)O[C@H]1C(=O)[C@@]2(C)[C@H]([C@H](OC(=O)c3ccccc3)[C@]3(O)C[C@H](OC(=O)[C@H](O)[C@@H](NC(=O)c4ccccc4)c4ccccc4)C(C)=C1C3(C)C)[C@]1(OC(C)=O)CO[C@@H]1C[C@@H]2O [paclitaxel, Paclitaxel]
Average Bliss score (NCIH460): 4.7 | Average Bliss score (HCT15): 7.6 | Average Bliss score (NCIN87): 13 | Average Bliss score (PANC1): 15 | Average Bliss score (UMUC3): 6.3 | Average Bliss score (SNU5): 2.8 | Average Bliss score (NCIH2228): 15 | Average Bliss score (HT1080): 2.7 | Average Bliss score (NUGC4): 7 | Average Bliss score (BXPC3): 3.8 | Average Bliss score (HT55): 6.2 | Average Bliss score (ASPC1): 14 | Average Bliss score (LOUNH91): 9.7 | Average Bliss score (NCIH508): 8.4 | Average Bliss score [2]: 5.3 | animals with no visible tumors (tumor-free) (Colo205 tumor cells): 2 out of 10

CC[C@]1(O)C[C@H]2CN(CCc3c([nH]c4ccccc34)[C@@](C(=O)OC)(c3cc4c(cc3OC)N(C=O)[C@H]3[C@@](O)(C(=O)OC)[C@H](OC(C)=O)[C@]5(CC)C=CCN6CC[C@]43[C@@H]65)C2)C1 [vincristine, Vincristine]
single agent cytotoxicity (cell viability curves) (U-937; U-937 cells): strong cytotoxicity
